Measured values from patent publication US20220142958A1, “MEDICINAL COMPOSITION HAVING EXCELLENT STABILITY” (EA Pharma Co., Ltd., priority 2019, published 2022).

Legend:
[1] = Example 4B: residual ratio at 50, 60, 70° C. and Arrhenius estimation at 25° C.; assay type: physicochemical; settings: for Kobs: estimation at 25° C. (Arrhenius plot); for Residual ratio (%) estimation: estimation at 25° C.
Procedure: According to Table 13, Compound A1 was dissolved at 2 concentrations in each of the buffer solutions having a pH at each of both ends of Example 4A. Each of these solutions was dispensed into a glass vial and stored at each of 50° C., 60° C., and 70° C. After the storage, a residual ratio was calculated according to a test method described below.
Test method: In the solution after the storage, the residual ratio was analyzed according to a normal method using a liquid chromatography apparatus Prominence (manufactured by Shimadzu Corporation) and an ultraviolet absorptiometer (measurement wavelength: 254 nm, Prominence (manufactured by Shimadzu Corporation)). At this time, SUMIPAX ODS (3 mm×150 mm, […], manufactured by SCAS) was used as a column.
The calculation for obtaining the residual ratio (%) of Compound A1 during each storage period is as follows.
Residual ratio (%) of Compound A1 during each storage period=peak area of Compound A1 in sample solution/peak area of Compound A1 in standard solution×100
Here, “Compound A1 in standard solution” refers to a solution obtained by dissolving Compound A1 in each of the buffer solutions shown in Table 13 so that a concentration was 0.1 mg/mL, and then storing the solution at 5° C. It was clear from the results of Example 1 that the solution of Compound A1 was stable when being stored at 5° C., and thus, the solution was used as the standard solution.
The reaction rate constant at each of the storing temperatures was calculated using the obtained residual ratio. The Arrhenius plot was performed to calculate the reaction rate constant (h^−1) at an arbitrary temperature. As an example, the residual ratio estimation at 25° C. is shown in Table 15 and described in FIG. 1.

[2] = system: SHPT patients on maintenance hemodialysis; assay: Phase I/II clinical trial, single administration; assay type: in vivo, human; settings: for percentage decrease in the serum iPTH concentration: 66 hours after the administration
Procedure: Targeting SHPT patients on maintenance hemodialysis, pharmacokinetics, pharmacodynamics and safety upon single or repeated intravenous administration of Compound A1 were examined by conducting a double-blind test using a placebo as a control.
Single administration: Based on the clinically effective dose calculated in Reference Example 5, the doses were given at 0.025 mg, 0.05 mg, 0.1 mg, 0.2 mg, 0.4 mg, 0.6 mg, and 0.8 mg (7 steps). On the day of trial drug administration, the trial drug was intravenously administered as slow as possible within 60 seconds 2 to 4 hours following the end of dialysis. Here, the trial drug was administered by diluting a required dose taken from the Compound A1 vial formulation prepared as follows with sterilized water for injection, and filling a syringe with the resultant in accordance with the dose to be administered.
Each item was evaluated according to the predetermined evaluation schedule.
A vial formulation encapsulating 1 mg of Compound A1 in terms of a dehydrate, and sodium chloride, disodium hydrogen phosphate dodecahydrate, and sodium dihydrogen phosphate dihydrate as additives in 10 ml of sterilized water for injection

SMILES: Cc1c(Cl)cc(S(=O)(=O)[O-])cc1NC(=O)NC[C@H](N)C(=O)O.[Na+] [Compound A1, sodium 3-{[(2S)-2-amino-2-carboxyethyl]carbamoylamino}-5-chloro-4-methylbenzenesulfonate]
- Kobs ([1]; pH 1.1, 0.1 mg/mL): 3.01e-06 h⁻¹
- Kobs ([1]; pH 1.1, 10 mg/mL): 5.55e-06 h⁻¹
- Kobs ([1]; pH 7.0, 0.1 mg/mL): 3.1e-06 h⁻¹
- Kobs ([1]; pH 7.0, 10 mg/mL): 5.73e-06 h⁻¹
- Residual ratio (%) estimation ([1]; pH 1.1, 0.1 mg/mL, 3M): 99.4%
- Residual ratio (%) estimation ([1]; pH 1.1, 0.1 mg/mL, 6M): 98.7%
- Residual ratio (%) estimation ([1]; pH 1.1, 0.1 mg/mL, 12M): 97.4%
- Residual ratio (%) estimation ([1]; pH 1.1, 10 mg/mL, 3M): 98.8%
- Residual ratio (%) estimation ([1]; pH 1.1, 10 mg/mL, 6M): 97.6%
- Residual ratio (%) estimation ([1]; pH 1.1, 10 mg/mL, 12M): 95.3%
- Residual ratio (%) estimation ([1]; pH 7.0, 0.1 mg/mL, 3M): 99.3%
- Residual ratio (%) estimation ([1]; pH 7.0, 0.1 mg/mL, 6M): 98.7%
- Residual ratio (%) estimation ([1]; pH 7.0, 0.1 mg/mL, 12M): 97.4%
- Residual ratio (%) estimation ([1]; pH 7.0, 10 mg/mL, 3M): 98.8%
- Residual ratio (%) estimation ([1]; pH 7.0, 10 mg/mL, 6M): 97.6%
- Residual ratio (%) estimation ([1]; pH 7.0, 10 mg/mL, 12M): 95.2%
- storage stability ([1]; formulation with pH of 1.1 and 7.0, 25° C., over 12 months (estimation)): excellent storage stability
- Residual ratio (%) ([1]; pH 1.1, 0.1 mg/mL, 50° C., 23 hours): 98.9%
- Residual ratio (%) ([1]; pH 1.1, 0.1 mg/mL, 50° C., 141 hours): 96.9%
- Residual ratio (%) ([1]; pH 1.1, 0.1 mg/mL, 50° C., 570 hours): 92.3%
- Residual ratio (%) ([1]; pH 1.1, 0.1 mg/mL, 60° C., 23 hours): 97.8%
- Residual ratio (%) ([1]; pH 1.1, 0.1 mg/mL, 60° C., 141 hours): 92.0%
- Residual ratio (%) ([1]; pH 1.1, 0.1 mg/mL, 60° C., 570 hours): 76.7%
- Residual ratio (%) ([1]; pH 1.1, 0.1 mg/mL, 70° C., 23 hours): 94.5%
- Residual ratio (%) ([1]; pH 1.1, 0.1 mg/mL, 70° C., 141 hours): 76.8%
- Residual ratio (%) ([1]; pH 1.1, 0.1 mg/mL, 70° C., 570 hours): 35.5%
- Residual ratio (%) ([1]; pH 1.1, 10 mg/mL, 50° C., 23 hours): 96.2%
- Residual ratio (%) ([1]; pH 1.1, 10 mg/mL, 50° C., 141 hours): 96.4%
- Residual ratio (%) ([1]; pH 1.1, 10 mg/mL, 50° C., 570 hours): 89.5%
- Residual ratio (%) ([1]; pH 1.1, 10 mg/mL, 60° C., 23 hours): 96.4%
- Residual ratio (%) ([1]; pH 1.1, 10 mg/mL, 60° C., 141 hours): 95.6%
- Residual ratio (%) ([1]; pH 1.1, 10 mg/mL, 60° C., 570 hours): 73.4%
- Residual ratio (%) ([1]; pH 1.1, 10 mg/mL, 70° C., 23 hours): 92.5%
- Residual ratio (%) ([1]; pH 1.1, 10 mg/mL, 70° C., 141 hours): 84.2%
- Residual ratio (%) ([1]; pH 1.1, 10 mg/mL, 70° C., 570 hours): 36.5%
- Residual ratio (%) ([1]; pH 7.0, 0.1 mg/mL, 50° C., 23 hours): 99.6%
- Residual ratio (%) ([1]; pH 7.0, 0.1 mg/mL, 50° C., 141 hours): 97.7%
- Residual ratio (%) ([1]; pH 7.0, 0.1 mg/mL, 50° C., 570 hours): 90.9%
- Residual ratio (%) ([1]; pH 7.0, 0.1 mg/mL, 60° C., 23 hours): 98.2%
- Residual ratio (%) ([1]; pH 7.0, 0.1 mg/mL, 60° C., 141 hours): 89.2%
- Residual ratio (%) ([1]; pH 7.0, 0.1 mg/mL, 60° C., 570 hours): 63.9%
- Residual ratio (%) ([1]; pH 7.0, 0.1 mg/mL, 70° C., 23 hours): 93.8%
- Residual ratio (%) ([1]; pH 7.0, 0.1 mg/mL, 70° C., 141 hours): 68.0%
- Residual ratio (%) ([1]; pH 7.0, 0.1 mg/mL, 70° C., 570 hours): 21.1%
- Residual ratio (%) ([1]; pH 7.0, 10 mg/mL, 50° C., 23 hours): 100.0%
- Residual ratio (%) ([1]; pH 7.0, 10 mg/mL, 50° C., 141 hours): 98.0%
- Residual ratio (%) ([1]; pH 7.0, 10 mg/mL, 50° C., 570 hours): 89.0%
- Residual ratio (%) ([1]; pH 7.0, 10 mg/mL, 60° C., 23 hours): 97.2%
- Residual ratio (%) ([1]; pH 7.0, 10 mg/mL, 60° C., 141 hours): 86.3%
- Residual ratio (%) ([1]; pH 7.0, 10 mg/mL, 60° C., 570 hours): 61.0%
- Residual ratio (%) ([1]; pH 7.0, 10 mg/mL, 70° C., 23 hours): 91.7%
- Residual ratio (%) ([1]; pH 7.0, 10 mg/mL, 70° C., 141 hours): 64.4%
- Residual ratio (%) ([1]; pH 7.0, 10 mg/mL, 70° C., 570 hours): 22.2%
- percentage decrease in the serum iPTH concentration ([2]; 0.025 mg dose group): 27%
- percentage decrease in the serum iPTH concentration ([2]; 0.05 mg dose group): 48%
- percentage decrease in the serum iPTH concentration ([2]; 0.1 mg dose group): 44%
- percentage decrease in the serum iPTH concentration ([2]; 0.2 mg dose group): 57%
- percentage decrease in the serum iPTH concentration ([2]; 0.4 mg dose group): 78%
- percentage decrease in the serum iPTH concentration ([2]; 0.6 mg dose group): 69%
- percentage decrease in the serum iPTH concentration ([2]; 0.8 mg dose group): 66%
- time the serum iPTH lowering effect continued after the administration ([2]; single administration, just before the dialysis): up to 66 hours
- vomiting ([2]; single administration, observed in the 0.4 mg and higher dose groups): non-severe and mild
- nausea ([2]; single administration, observed in the 0.6 mg and higher dose groups): non-severe and mild
- Cmax and AUC in plasma ([2]; single i.v. 0.025 to 0.8 mg, relation to dose): increased with the increase in the given dose
